{"source": "BindingDB's records for doi:10.1016/s0960-894x(00)00026-3", "about": "(Universit&#224, 2000)", "data": [{"test": "Inhibition of Clostridium histolyticum collagenase using a linear regression program", "units": {"Ki": "µM"}, "values": [{"smiles": "CC(=O)Nc1ccc(S(=O)(=O)N(Cc2ccc([N+](=O)[O-])cc2)C(C)C(=O)O)cc1", "note": "(configuration not stated) [2-[(4-Acetylamino-benzenesulfonyl)-(4-nitro-benzyl)-amino]-propionic acid]", "Ki": 3.1}, {"smiles": "CC(C(=O)NO)N(Cc1ccc([N+](=O)[O-])cc1)Sc1ccc([N+](=O)[O-])cc1[N+](=O)[O-]", "note": "(configuration not stated) [2-[(2,4-Dinitro-phenylsulfanyl)-(4-nitro-benzyl)-amino]-N-hydroxy-propionamide]", "Ki": 9}, {"smiles": "CC(C(=O)O)N(Cc1ccc([N+](=O)[O-])cc1)S(=O)(=O)c1ccccc1[N+](=O)[O-]", "note": "(configuration not stated) [2-[(2-Nitro-benzenesulfonyl)-(4-nitro-benzyl)-amino]-propionic acid]", "Ki": 4.8}, {"smiles": "CC(C(=O)NO)N(Cc1ccc([N+](=O)[O-])cc1)S(=O)(=O)c1ccc(C(=O)O)cc1", "note": "(configuration not stated) [4-[(1-Hydroxycarbamoyl-ethyl)-(4-nitro-benzyl)-sulfamoyl]-benzoic acid]", "Ki": 6}, {"smiles": "CC(C(=O)NO)N(Cc1ccc([N+](=O)[O-])cc1)S(=O)(=O)c1cccc(C(F)(F)F)c1", "note": "(configuration not stated) [N-Hydroxy-2-[(4-nitro-benzyl)-(3-trifluoromethyl-benzenesulfonyl)-amino]-propionamide]", "Ki": 6}, {"smiles": "Cc1ccccc1S(=O)(=O)NC(=O)N(Cc1ccc([N+](=O)[O-])cc1)C(C)C(=O)O", "note": "(configuration not stated) [2-[({[(2-methylphenyl)sulfonyl]amino}carbonyl)(4-nitrobenzyl)amino]propanoic acid]", "Ki": 3.1}, {"smiles": "CC(C(=O)O)N(Cc1ccc([N+](=O)[O-])cc1)Sc1ccc([N+](=O)[O-])cc1[N+](=O)[O-]", "note": "(configuration not stated) [2-[(2,4-Dinitro-phenylsulfanyl)-(4-nitro-benzyl)-amino]-propionic acid]", "Ki": 5.1}, {"smiles": "CC(C(=O)O)N(Cc1ccc([N+](=O)[O-])cc1)S(=O)(=O)c1ccc(NC(=O)OC(C)(C)C)cc1", "note": "(configuration not stated) [2-[(4-tert-Butoxycarbonylamino-benzenesulfonyl)-(4-nitro-benzyl)-amino]-propionic acid]", "Ki": 2.4}, {"smiles": "CC(C(=O)O)N(Cc1ccc([N+](=O)[O-])cc1)C(=O)Nc1ccc(Cl)c(Cl)c1", "note": "(configuration not stated) [2-[3-(3,4-Dichloro-phenyl)-1-(4-nitro-benzyl)-ureido]-propionic acid]", "Ki": 5}, {"smiles": "CC(C(=O)O)N(Cc1ccc([N+](=O)[O-])cc1)C(=O)NS(=O)(=O)c1ccc(Cl)cc1", "note": "(configuration not stated) [2-[({[(4-chlorophenyl)sulfonyl]amino}carbonyl)(4-nitrobenzyl)amino]propanoic acid]", "Ki": 2.4}, {"smiles": "CC(C(=O)NO)N(Cc1ccc([N+](=O)[O-])cc1)S(=O)(=O)C(F)(F)F", "note": "(configuration not stated) [N-Hydroxy-2-[(4-nitro-benzyl)-trifluoromethanesulfonyl-amino]-propionamide]", "Ki": 75}, {"smiles": "CC(C(=O)NO)N(Cc1ccc([N+](=O)[O-])cc1)C(=O)NS(=O)(=O)c1ccc(Cl)cc1", "note": "(configuration not stated) [2-[({[(4-chlorophenyl)sulfonyl]amino}carbonyl)(4-nitrobenzyl)amino]-N-hydroxypropanamide]", "Ki": 7}, {"smiles": "CC(C(=O)O)N(Cc1ccc([N+](=O)[O-])cc1)S(=O)(=O)c1cccc(NC(=O)OC(C)(C)C)c1", "note": "(configuration not stated) [2-[(3-tert-Butoxycarbonylamino-benzenesulfonyl)-(4-nitro-benzyl)-amino]-propionic acid]", "Ki": 2.6}, {"smiles": "Cc1cc(C)c(S(=O)(=O)N(Cc2ccc([N+](=O)[O-])cc2)C(C)C(=O)O)c(C)c1", "note": "(configuration not stated) [2-[(4-Nitro-benzyl)-(2,4,6-trimethyl-benzenesulfonyl)-amino]-propionic acid]", "Ki": 6}, {"smiles": "CC(C(=O)O)N(Cc1ccc([N+](=O)[O-])cc1)S(C)(=O)=O", "note": "(configuration not stated) [2-[Methanesulfonyl-(4-nitro-benzyl)-amino]-propionic acid]", "Ki": 18}, {"smiles": "CC(C(=O)NO)N(Cc1ccc([N+](=O)[O-])cc1)S(=O)(=O)c1ccc(Cl)cc1", "note": "(configuration not stated) [2-[(4-Chloro-benzenesulfonyl)-(4-nitro-benzyl)-amino]-N-hydroxy-propionamide]", "Ki": 32}, {"smiles": "Cc1ccc(S(=O)(=O)N(Cc2ccc([N+](=O)[O-])cc2)C(C)C(=O)O)cc1", "note": "(configuration not stated) [2-[(4-Nitro-benzyl)-(toluene-4-sulfonyl)-amino]-propionic acid]", "Ki": 13}, {"smiles": "CC(C(=O)O)N(Cc1ccc([N+](=O)[O-])cc1)S(=O)(=O)c1ccc(C(=O)O)cc1", "note": "(configuration not stated) [4-[(1-Carboxy-ethyl)-(4-nitro-benzyl)-sulfamoyl]-benzoic acid]", "Ki": 1.4}, {"smiles": "CC(C(=O)NO)N(Cc1ccc([N+](=O)[O-])cc1)C(=O)Nc1ccc(F)cc1F", "note": "(configuration not stated) [2-[3-(2,4-Difluoro-phenyl)-1-(4-nitro-benzyl)-ureido]-N-hydroxy-propionamide]", "Ki": 15}, {"smiles": "CC(C(=O)NO)N(Cc1ccc([N+](=O)[O-])cc1)C(=O)Nc1cccc2ccccc12", "note": "(configuration not stated) [N-Hydroxy-2-[3-naphthalen-1-yl-1-(4-nitro-benzyl)-ureido]-propionamide]", "Ki": 10}, {"smiles": "CC(C(=O)NO)N(Cc1ccc([N+](=O)[O-])cc1)S(=O)(=O)c1ccc(Br)cc1", "note": "(configuration not stated) [2-[(4-Bromo-benzenesulfonyl)-(4-nitro-benzyl)-amino]-N-hydroxy-propionamide]", "Ki": 30}, {"smiles": "CC(C(=O)O)N(Cc1ccc([N+](=O)[O-])cc1)C(=O)Nc1ccc(F)cc1", "note": "(configuration not stated) [2-[3-(4-Fluoro-phenyl)-1-(4-nitro-benzyl)-ureido]-propionic acid]", "Ki": 5.4}, {"smiles": "CC(C(=O)NO)N(Cc1ccc([N+](=O)[O-])cc1)S(=O)(=O)c1cccc2ccccc12", "note": "(configuration not stated) [N-Hydroxy-2-[(naphthalene-1-sulfonyl)-(4-nitro-benzyl)-amino]-propionamide]", "Ki": 7}, {"smiles": "CC(C(=O)O)N(Cc1ccc([N+](=O)[O-])cc1)Sc1ccc([N+](=O)[O-])cc1", "note": "(configuration not stated) [2-[(4-Nitro-benzyl)-(4-nitro-phenylsulfanyl)-amino]-propionic acid]", "Ki": 5.5}, {"smiles": "CC(C(=O)NO)N(Cc1ccc([N+](=O)[O-])cc1)S(=O)(=O)c1ccc(I)cc1", "note": "(configuration not stated) [N-Hydroxy-2-[(4-iodo-benzenesulfonyl)-(4-nitro-benzyl)-amino]-propionamide]", "Ki": 37}, {"smiles": "CC(C(=O)O)N(Cc1ccc([N+](=O)[O-])cc1)S(=O)(=O)N(C)C", "note": "(configuration not stated) [2-[[(dimethylamino)sulfonyl](4-nitrobenzyl)amino]propanoic acid]", "Ki": 36}, {"smiles": "CC(C(=O)O)N(Cc1ccc([N+](=O)[O-])cc1)S(=O)(=O)c1cccc(C(F)(F)F)c1", "note": "(configuration not stated) [2-[(4-Nitro-benzyl)-(3-trifluoromethyl-benzenesulfonyl)-amino]-propionic acid]", "Ki": 0.3}, {"smiles": "COc1ccc(S(=O)(=O)N(Cc2ccc([N+](=O)[O-])cc2)C(C)C(=O)O)cc1", "note": "(configuration not stated) [2-[(4-Methoxy-benzenesulfonyl)-(4-nitro-benzyl)-amino]-propionic acid]", "Ki": 5.2}, {"smiles": "CC(C(=O)NO)N(Cc1ccc([N+](=O)[O-])cc1)S(=O)(=O)c1cccc([N+](=O)[O-])c1", "note": "(configuration not stated) [N-Hydroxy-2-[(3-nitro-benzenesulfonyl)-(4-nitro-benzyl)-amino]-propionamide]", "Ki": 12}, {"smiles": "CC(C(=O)O)N(Cc1ccc([N+](=O)[O-])cc1)S(=O)(=O)c1ccc(Cl)cc1", "note": "(configuration not stated) [2-[(4-Chloro-benzenesulfonyl)-(4-nitro-benzyl)-amino]-propionic acid]", "Ki": 9}, {"smiles": "CC(C(=O)NO)N(Cc1ccc([N+](=O)[O-])cc1)C(=O)Nc1ccc(Cl)cc1", "note": "(configuration not stated) [2-[3-(4-Chloro-phenyl)-1-(4-nitro-benzyl)-ureido]-N-hydroxy-propionamide]", "Ki": 18}, {"smiles": "CC(C(=O)O)N(Cc1ccc([N+](=O)[O-])cc1)C(=S)NC(=O)c1ccccc1", "note": "(configuration not stated) [2-[3-Benzoyl-1-(4-nitro-benzyl)-thioureido]-propionic acid]", "Ki": 0.9}]}]}
